Assay [1] has as its system VEGF-mediated increase in endothelial cell proliferation. Description: Endothelial cell proliferation assay in the presence of VEGF. In kind it is cell-based. Conditions: 1.5 micromolar. As for the experimental part: (§1) Cell proliferation assays Endothelial cells (HUVECs) were seeded in 48 well plates at a density of 10,000 to 20,000 cells per well in the normal growth medium (EGM-2-Clonetics) containing 2% fetal bovine serum, FGF, VEGF, IGF, ascorbic acid, EGF, GA, heparin and hydrocortisone. The cells were grown normally in the growth medium for 24 hr at 37 degrees C. and 5% CO2. The cells were then rinsed with RPMI-1% BSA and starved for 1-2 hrs. The stock solutions of all the compounds were made at a concentration of 10 mg/ml in DMSO and diluted in RPMI-1% BSA at a final concentrations of 1 to 12 microgram/ml. The cells were then washed and treated with the compounds and incubated for another 24 hr at 37 degrees C. Then ^3H thymidine (0.5 microgram/ml in RPMI-BSA) was added to the cells and incubated at 37 degrees C. for 4 to 5 hours. The unincorporated thymidine was removed by washing the cells four times with 1× PBS. Then the cells were lysed with 0.5M NaOH for 30 min and the radioactivity counted in the beta counter.
(§2) In endothelial cell proliferation assays as described above, the effect of the compound 1-(4-chloro-3-methylphenyl)-3-(2,6-dichlorophenyl)-prop-2-en-1-one was evaluated in the presence of HGF/SF, VEGF or FGF for its effects on antagonizing the growth factor-induced stimulation of endothelial cell proliferation.

The test system of assay [2] is Endothelial cells (HUVECs). Description: Endothelial cell (HUVEC) proliferation assay, 3H thymidine incorporation, compound without added growth factor. It counts as cell-based, human. Conditions: 1 ug/ml, without HGF/SF. Summed up:
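HUVECs grown 24 h in EGM-2, starved 1-2 h in RPMI-1% BSA, then exposed 24 h at 37 degrees C to compounds at 1 to 12 microgram/ml without added growth factors. Proliferation read as 3H thymidine incorporation over 4 to 5 h; human iliac artery endothelial cells also used similarly.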
A general note: Incorporation of labelled thymidine or its analogues reports DNA synthesis.

Assay [3] has as its system HGF/SF induced proliferation of HUVEC. Description: Endothelial cell (HUVEC) proliferation assay in the presence of exogenously-added HGF/SF. It counts as cell-based, human. Summed up:
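Serum-starved HUVECs were treated 24 h at 37°C with compounds at final 1 to 12 microgram/ml in RPMI-1% BSA. Proliferation was read as ³H-thymidine incorporation over 4 to 5 h, counted after NaOH lysis.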

Another assay concerns DU145 cells. The experiment in a line: Clonogenic assay. In kind it is cell-based. Conditions: clonogenic assay over 7 days. As for the experimental part:
The effect of (4-(2-chloro-6-fluorobenzyl)-3,5-dimethyl-1H-pyrazole-1-yl)(3-(2,6-dichlorophenyl)-5-methylisoxazol-4-yl)methanone (FIG. 7) and 1-(4-chloro-3-methylphenyl)-3-(2,6-dichlorophenyl)-prop-2-en-1-one were evaluated in a clonogenic assay over 7 days.

The test system of assay [4] is growth of blood vessels from subcutaneous tissue into Matrigel. Description: In vivo blood vessel ingrowth assay (Matrigel). Conditions: mice, Matrigel mixed with compound injected subcutaneously, 10 days. As for the experimental part:
Angiogenesis was assayed as growth of blood vessels from subcutaneous tissue into a solid gel of basement membrane containing the test compound. Matrigel in liquid form (0.5 ml) was mixed with a compound of the invention, or basic fibroblast growth factor as a control, and injected into the abdominal subcutaneous tissue of mice as previously described (Kibbey, M. C., Grant, D. S. Auerbach, R. and Kleinman, H. K. [1992] Role of the SIKVAV site of laminin in promotion of angiogenesis and tumor growth: an in vivo Matrigel model. J. Natl. Can. Inst. 84, 1633-38). After 10 days, mice were sacrificed and the Matrigel plugs were removed, fixed, sectioned, stained and examined for ingrowth of blood vessels.

Assay [5] relates to FGF-mediated increase in endothelial cell proliferation. The experiment in a line: Endothelial cell proliferation assay in the presence of FGF. The settings on record: 1.5 micromolar. It counts as cell-based. As for the experimental part: as §1, §2

As to `Cc1cc(C(=O)C=Cc2c(Cl)cccc2Cl)ccc1Cl` [1-(4-chloro-3-methylphenyl)-3-(2,6-dichlorophenyl)-prop-2-en-1-one], the “effect on VEGF-mediated increase in endothelial cell proliferation” value in assay [1] is on record as “suppressed”. In assay [2], the “Activity at 1 ug/ml concentration Without HGF/SF (result in words)” value is on record as “No effect at 1 ug/ml”. The “effect on HGF/SF-mediated increase in endothelial cell proliferation” value in assay [3] (1.5 micromolar) is reported as “suppressed”. Moreover, the “Inhibition at 6-12 micrograms/ml With” value in assay [3] (6-12 micrograms/ml, with HGF/SF, inhibition of endothelial cell proliferation) is listed as 40-80% inhibition. Moreover, the DU145 cell growth result with DU145 cells is reported as “dose responsive inhibition”. In addition, the “ingrowth of blood vessels into Matrigel plug” value in assay [4] is recorded as “nearly complete inhibition of blood vessel ingrowth”. Moreover, the “effect on FGF-mediated increase in endothelial cell proliferation” value in assay [5] is “suppressed”.
